Results from patent publication US20150246938A1, “NOVEL OLEFIN DERIVATIVE” (SHIONOGI & CO., LTD., priority 2011, published 2015).

Target: T1, recombinant human ACC2 (Homo sapiens, UniProt O00763)
T1 construct: a cDNA encoding human ACC2 (27-2458) was cloned from human kidney cDNA library (Clontech); His-tag (N); made in house; host or cells: Sf-9 insect cells (Bac-to-Bac baculovirus)
Test: Measurement of inhibitory activity on human ACC2 (MALDI-TOF MS, acetyl CoA to malonyl CoA conversion)
Type: biochemical
Settings: not given

T1 sequence (O00763 27-2458): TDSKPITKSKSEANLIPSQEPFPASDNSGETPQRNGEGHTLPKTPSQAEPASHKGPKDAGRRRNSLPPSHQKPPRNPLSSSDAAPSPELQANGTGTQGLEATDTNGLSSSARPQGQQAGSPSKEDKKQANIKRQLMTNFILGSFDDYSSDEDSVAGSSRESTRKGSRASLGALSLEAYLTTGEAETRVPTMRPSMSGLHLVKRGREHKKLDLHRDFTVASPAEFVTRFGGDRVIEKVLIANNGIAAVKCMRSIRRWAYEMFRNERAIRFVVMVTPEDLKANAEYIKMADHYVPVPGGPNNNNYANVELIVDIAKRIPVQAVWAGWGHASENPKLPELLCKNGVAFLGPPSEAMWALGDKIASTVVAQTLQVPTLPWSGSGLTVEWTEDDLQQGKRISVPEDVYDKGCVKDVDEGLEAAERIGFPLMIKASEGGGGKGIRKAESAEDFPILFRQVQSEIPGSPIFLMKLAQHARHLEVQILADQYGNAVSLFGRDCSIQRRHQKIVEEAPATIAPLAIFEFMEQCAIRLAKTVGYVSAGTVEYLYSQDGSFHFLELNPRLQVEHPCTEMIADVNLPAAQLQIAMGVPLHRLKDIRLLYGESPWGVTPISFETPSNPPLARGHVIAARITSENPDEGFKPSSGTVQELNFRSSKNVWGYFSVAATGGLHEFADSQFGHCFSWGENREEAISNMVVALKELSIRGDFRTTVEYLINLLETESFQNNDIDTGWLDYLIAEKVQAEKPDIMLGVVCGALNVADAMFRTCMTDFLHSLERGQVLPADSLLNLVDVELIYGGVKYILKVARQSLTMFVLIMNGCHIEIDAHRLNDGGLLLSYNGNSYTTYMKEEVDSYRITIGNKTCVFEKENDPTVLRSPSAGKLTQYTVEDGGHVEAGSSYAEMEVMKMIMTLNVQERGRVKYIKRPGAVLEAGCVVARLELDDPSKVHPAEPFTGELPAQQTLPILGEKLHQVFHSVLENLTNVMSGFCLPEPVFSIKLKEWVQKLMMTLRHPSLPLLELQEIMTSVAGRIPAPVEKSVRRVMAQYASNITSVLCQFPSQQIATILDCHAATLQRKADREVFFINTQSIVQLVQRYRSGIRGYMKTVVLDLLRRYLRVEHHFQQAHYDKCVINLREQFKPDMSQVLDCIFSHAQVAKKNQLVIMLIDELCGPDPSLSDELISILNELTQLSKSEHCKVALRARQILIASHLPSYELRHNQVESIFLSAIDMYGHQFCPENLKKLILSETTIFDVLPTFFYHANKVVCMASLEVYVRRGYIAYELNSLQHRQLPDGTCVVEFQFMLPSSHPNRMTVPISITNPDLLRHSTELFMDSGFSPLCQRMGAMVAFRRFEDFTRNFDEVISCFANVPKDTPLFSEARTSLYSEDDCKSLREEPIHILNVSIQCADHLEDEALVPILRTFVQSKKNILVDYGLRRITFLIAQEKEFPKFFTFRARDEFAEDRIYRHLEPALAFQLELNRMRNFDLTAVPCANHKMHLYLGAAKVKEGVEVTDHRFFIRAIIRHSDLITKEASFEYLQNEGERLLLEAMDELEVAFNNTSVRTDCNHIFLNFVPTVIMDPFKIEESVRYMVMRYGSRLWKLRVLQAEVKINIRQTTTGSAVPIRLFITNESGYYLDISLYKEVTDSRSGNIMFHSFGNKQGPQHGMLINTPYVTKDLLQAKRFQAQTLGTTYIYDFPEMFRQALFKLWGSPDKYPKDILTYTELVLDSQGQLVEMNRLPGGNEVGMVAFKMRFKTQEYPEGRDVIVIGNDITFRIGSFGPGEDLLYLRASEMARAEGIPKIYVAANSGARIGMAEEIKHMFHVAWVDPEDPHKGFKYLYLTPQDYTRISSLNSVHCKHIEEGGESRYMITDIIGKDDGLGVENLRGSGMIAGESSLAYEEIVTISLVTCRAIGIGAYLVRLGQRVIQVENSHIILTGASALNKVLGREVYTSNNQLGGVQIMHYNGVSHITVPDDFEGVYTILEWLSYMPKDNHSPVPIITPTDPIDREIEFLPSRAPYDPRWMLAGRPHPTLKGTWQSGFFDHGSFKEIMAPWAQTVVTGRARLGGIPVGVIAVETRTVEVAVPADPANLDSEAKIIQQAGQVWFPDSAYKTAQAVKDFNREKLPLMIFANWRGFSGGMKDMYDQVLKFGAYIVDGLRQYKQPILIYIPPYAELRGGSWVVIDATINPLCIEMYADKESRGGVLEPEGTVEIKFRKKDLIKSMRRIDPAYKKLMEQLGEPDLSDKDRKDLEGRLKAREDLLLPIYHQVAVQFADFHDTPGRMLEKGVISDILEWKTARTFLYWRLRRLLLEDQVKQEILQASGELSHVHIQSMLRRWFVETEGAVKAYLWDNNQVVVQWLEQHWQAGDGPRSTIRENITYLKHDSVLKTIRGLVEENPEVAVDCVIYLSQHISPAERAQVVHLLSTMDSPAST

Compared with `CC(=O)N[C@@H](C)/C=C/c1cnc(Oc2ccc(OCC3CC3O)cc2Cl)nc1` (some centres unmarked) [Compound I-379], `CC(=O)N[C@@H](C)/C=C/c1cnc(Oc2cc(O)c(OCC3CC3)cc2Cl)nc1` [Compound I-406] is 12-fold lower in IC50: 3700 nM for the first, 300 nM for the second. The second is the more potent here.

First: CC(=O)N[C@@H](C)/C=C/c1ccc(Oc2ccc(CC3CC3)cc2Cl)nc1 [Compound I-380]
Second: CC(=O)N[C@@H](C)/C=C/c1ccc(Oc2ccc(C3CCC3)cc2Cl)nc1 [Compound I-401]
The IC50 of the first is 2.5-fold lower: 22 nM for the first, 56 nM for the second. The first is the more potent here.

First: CC(=O)N[C@@H](C)/C=C/c1cc(Oc2ccc(OCC3CC3)cc2Cl)no1 [Compound I-381]
Second: CC(=O)N[C@@H](C)/C=C/c1cc(Oc2ccc(OCC3CC3)cc2Cl)nn1C [Compound I-395]
The IC50 of the first is 12-fold lower: 360 nM for the first, 4200 nM for the second. The first is the more potent here.

First: CC(=O)N[C@@H](C)/C=C/c1ccc(Oc2ccc(N3CCOCC3)cc2Cl)nc1 [Compound I-382]
Second: CC(=O)N[C@@H](C)/C=C/c1ccc(Oc2ccc(N3CCCCC3)cc2Cl)nc1 [Compound I-383]
The IC50 of the first is 45-fold higher: 1300 nM for the first, 29 nM for the second. The second is the more potent here.

Going from `CCCc1ccc(Oc2ccc(/C=C/[C@H](C)NC(=O)CO)cn2)c(Cl)c1` [Compound I-384] to `CCCc1ccc(Oc2ccc(/C=C/[C@H](C)NC(=O)CNC(C)=O)cn2)c(Cl)c1` [Compound I-392], the IC50 rises from 280 nM to 970 nM (3.5-fold). The first is the more potent here.

Going from `CCCc1cc(Cl)c(Oc2ccc(/C=C/[C@H](C)NC(C)=O)cn2)c(Cl)c1` [Compound I-385] to `CCCc1cc(Cl)c(Oc2ccc(/C=C/[C@H](C)NC(N)=O)cn2)c(Cl)c1` [Compound I-387], the IC50 rises from 160 nM to 560 nM (3.5-fold).

Going from `CCCc1ccc(Oc2ccc(/C=C/[C@H](C)NC(=O)CNC(=O)OC(C)(C)C)cn2)c(Cl)c1` [Compound I-386] to `CCCc1ccc(Oc2ccc(/C=C/[C@H](C)NC(=O)CC(=O)OC(C)(C)C)cn2)c(Cl)c1` [Compound I-405], the IC50 rises from 400 nM to 1200 nM (3-fold).

First: CCCn1cc(Oc2ccc(/C=C/[C@H](C)NC(C)=O)cn2)cn1 [Compound I-388]
Second: CCCc1ccc(Oc2ccc(/C=C/[C@H](C)NC(C)=O)cn2)cc1C#N [Compound I-404]
The IC50 of the first is 11-fold higher: 2000 nM for the first, 190 nM for the second. The second is the more potent here.

First: CCC(F)(F)c1ccc(Oc2ccc(/C=C/[C@H](C)NC(C)=O)cn2)c(Cl)c1 [Compound I-389]
Second: CCC(F)(F)c1ccc(Oc2ccc(/C=C/[C@H](C)NC(N)=O)cn2)c(Cl)c1 [Compound I-393]
The IC50 of the first is 2-fold lower: 24 nM for the first, 48 nM for the second. The first is the more potent here.

Going from `CCCc1ccc(Oc2ccc(/C=C/[C@H](C)NC(=O)c3ccnc(C(=O)NCCO)c3)cn2)c(Cl)c1` [Compound I-391] to `CCCc1ccc(Oc2ccc(/C=C/[C@H](C)NC(=O)Cc3ccccn3)cn2)c(Cl)c1` [Compound I-422], the IC50 rises from 47 nM to 1300 nM (28-fold). The first is the more potent here.

First: COc1c(OCC2CC2)ccc(Oc2cnc(/C=C/[C@H](C)NC(C)=O)cn2)c1Cl [Compound I-394]
Second: COc1cc(Oc2ncc(/C=C/[C@H](C)NC(C)=O)cn2)c(Cl)cc1OCC1CC1 [Compound I-407]
The IC50 of the first is 180-fold lower: 12 nM for the first, 2100 nM for the second.

`CC(=O)N[C@@H](C)/C=C/c1ccc(Oc2ccc(C(F)(F)C(C)C)cc2Cl)nc1` [Compound I-396] and `CC(C)C(F)(F)c1ccc(Oc2ccc(/C=C/[C@H](C)NC(N)=O)cn2)c(Cl)c1` [Compound I-399] are within 1.5-fold of each other in IC50: 55 nM for the first, 68 nM for the second.

First: CC(=O)N[C@@H](C)/C=C/c1ccc(Oc2ccc3c(c2)CCC3)nc1 [Compound I-397]
Second: CC(=O)N[C@@H](C)/C=C/c1ccc(Oc2ccc3c(c2)CCCC3)nc1 [Compound I-398]
The IC50 of the first is 2.9-fold lower: 15 nM for the first, 43 nM for the second. The first is the more potent here.

Compared with `CCC1(c2ccc(Oc3ccc(/C=C/[C@H](C)NC(C)=O)cn3)c(Cl)c2)COC1` [Compound I-400], `CC(=O)N[C@@H](C)/C=C/c1ccc(Oc2ccc(C(C)(C)C(F)(F)F)cc2Cl)nc1` [Compound I-409] is 130-fold lower in IC50: 3200 nM for the first, 25 nM for the second. The second is the more potent here.

Going from `CC(=O)N[C@@H](C)/C=C/n1cc(Oc2ccc(OCC3CC3)cc2Cl)cn1` [Compound I-402] to `CCOc1ccc(Oc2ncc(/C=C/[C@H](C)NC(C)=O)cc2N)c(Cl)c1` [Compound I-430], the IC50 rises from 1100 nM to 2700 nM (2.5-fold). The first is the more potent here.

First: CCCc1ccc(Oc2ccc(/C=C/[C@H](C)NC(C)=O)cn2)c(C#N)c1 [Compound I-403]
Second: CCCc1ccc(Oc2ccc(/C=C/[C@H](C)NC(C)=O)cn2)c(-c2ccccc2)c1 [Compound I-408]
The IC50 of the first is 5.1-fold lower: 450 nM for the first, 2300 nM for the second. The first is the more potent here.

Going from `CCOc1ccc(Oc2ccc(/C=C/[C@H](C)CC(=O)NC)cn2)c(Cl)c1` [Compound I-410] to `CCCc1ccc(Oc2ccc(/C=C/[C@H](C)NC(=O)Cc3nccs3)cn2)c(Cl)c1` [Compound I-423], the IC50 rises from 150 nM to 3000 nM (20-fold). The first is the more potent here.

Going from `CCCc1ccc(Oc2ncc(/C=C/[C@H](C)NC(C)=O)s2)c(Cl)c1` [Compound I-411] to `CC(=O)N[C@@H](C)/C=C/c1cnc(Oc2ccc(C(C)(C)C(F)(F)F)cc2Cl)nc1` [Compound I-427], the IC50 rises from 77 nM to 200 nM (2.6-fold). The first is the more potent here.

First: CC(=O)N[C@@H](C)/C=C/c1ccc(Oc2ccc(-c3cnccn3)cc2Cl)nc1 [Compound I-412]
Second: CC(=O)N[C@@H](C)/C=C/c1ccc(Oc2ccc(-c3ncccn3)cc2Cl)nc1 [Compound I-418]
The IC50 of the first is 2.1-fold higher: 200 nM for the first, 97 nM for the second. The second is the more potent here.

First: CC(=O)N[C@@H](C)/C=C/c1ccc(Oc2ccc(-c3nc4ccccc4o3)cc2Cl)nc1 [Compound I-414]
Second: CC(=O)N[C@@H](C)/C=C/c1ccc(Oc2ccc(-c3nc4ccccc4s3)cc2Cl)nc1 [Compound I-415]
The IC50 of the first is 3.3-fold lower: 36 nM for the first, 120 nM for the second.

Going from `CC(=O)N[C@@H](C)/C=C/c1ccc(Oc2ccc(-c3nccs3)cc2Cl)nc1` [Compound I-416] to `CC(=O)N[C@@H](C)/C=C/c1ccc(Oc2ccc(-c3cnc(C(F)(F)F)cn3)cc2Cl)nc1` [Compound I-417], the IC50 falls from 170 nM to 57 nM (3-fold). The second is the more potent here.

`CC(=O)N[C@@H](C)/C=C/c1ccc(Oc2ccc(-c3ncc(C(F)(F)F)cn3)cc2Cl)nc1` [Compound I-419] and `CC(=O)N[C@@H](C)/C=C/c1ccc(Oc2ccc(-c3ccc(C(F)(F)F)cn3)cc2Cl)nc1` [Compound I-421] are within 1.5-fold of each other in IC50: 48 nM for the first, 52 nM for the second.

First: CC(=O)N[C@@H](C)/C=C/c1ccc(Oc2ccc3sc(C)nc3c2)nc1 [Compound I-424]
Second: CC(=O)N[C@@H](C)/C=C/c1ccc(Oc2ccc3nc(C)sc3c2)nc1 [Compound I-425]
The IC50 of the first is 3.5-fold higher: 140 nM for the first, 40 nM for the second. The second is the more potent here.

Compared with `CC(=O)N[C@@H](C)/C=C/c1ccc(Oc2cc3c(cc2Cl)CCC3)nc1` [Compound I-426], `CC(=O)N[C@@H](C)/C=C/c1ccc(Oc2ccc3c(c2)CCO3)nc1` [Compound I-429] is 1.9-fold higher in IC50: 26 nM for the first, 50 nM for the second.

With `CC(=O)N[C@@H](C)/C=C/c1cnc(Oc2ccc(C(C)(C)C(F)(F)F)cc2Cl)cn1` [Compound I-428] the IC50 was 170 nM.

Same assay, conditions: inhibition activity on human ACC2, Table 82; read-out: IC50

Going from `CCCc1ccc(Oc2ccc(/C=C/[C@H](C)NC(C)=O)cc2)nc1` [Compound I-368] to `CCCc1ncc(Oc2ccc(/C=C/[C@H](C)NC(C)=O)cn2)cc1C` [Compound I-370], the IC50 rises from 110 nM to 280 nM (2.5-fold). The first is the more potent here.

`CC(=O)N[C@@H](C)/C=C/c1ccc(Oc2ccc(C3(C)CC3)cc2Cl)nc1` [Compound I-369] and `CCC(F)c1ccc(Oc2ccc(/C=C/[C@H](C)NC(C)=O)cn2)c(Cl)c1` (some centres unmarked) [Compound I-373] are within 1.5-fold of each other in IC50: 24 nM for the first, 25 nM for the second.

`CC(=O)N[C@@H](C)/C=C/c1ccc(Oc2ccc(CC(C)(C)C)cc2Cl)nc1` [Compound I-371] and `CCCc1ccc(Oc2ccc(/C=C/[C@H](C)NC(=O)COC(C)=O)cn2)c(Cl)c1` [Compound I-375] are within 1.5-fold of each other in IC50: 60 nM for the first, 57 nM for the second.

First: CCCc1cc(F)c(Oc2ccc(/C=C/[C@H](C)NC(C)=O)cn2)c(Cl)c1 [Compound I-372]
Second: CCCc1ccc(Oc2ccc(/C=C/[C@H](C)NC(=O)C(=O)OCC)cn2)c(Cl)c1 [Compound I-374]
The IC50 of the first is 24-fold lower: 33 nM for the first, 780 nM for the second. The first is the more potent here.

First: CC(=O)N[C@@H](C)/C=C/c1ccc(Oc2ccc(-c3ccc(C#N)nc3)cc2Cl)nc1 [Compound I-376]
Second: CC(=O)N[C@@H](C)/C=C/c1ccc(Oc2ccc(-c3ccc(C#N)cc3)c(Cl)c2)nc1 [Compound I-377]
The IC50 of the first is 28-fold higher: 1100 nM for the first, 39 nM for the second.

`CC(=O)N[C@@H](C)/C=C/c1ccc(Oc2ccc(C3=CCC4(CC3)CC4)c(Cl)c2)nc1` [Compound I-378] showed an IC50 of 16 nM.

Same assay, conditions: inhibition activity on human ACC2, Table 84; read-out: IC50

First: CCC(=O)c1ccc(Oc2ncc(/C=C/[C@H](C)NC(C)=O)s2)c(Cl)c1 [Compound I-431]
Second: CCOC(=O)c1cnc(Oc2ccc(Oc3ccc(/C=C/[C@H](C)NC(C)=O)cn3)c(Cl)c2)s1 [Compound I-441]
The IC50 of the first is 8.1-fold lower: 85 nM for the first, 690 nM for the second.

Compared with `CCCc1ccc(Oc2ncc(/C=C/[C@H](C)NC(C)=O)cn2)c(Cl)c1` [Compound I-432], `CCCc1ccc(Oc2cnc(/C=C/[C@H](C)NC(C)=O)cn2)c(Cl)c1` [Compound I-433] is 11-fold lower in IC50: 520 nM for the first, 49 nM for the second.

First: CC(=O)N[C@@H](C)/C=C/c1ccc(Oc2ccc(C3(C)CC3(F)F)cc2Cl)nc1 (some centres unmarked) [Compound I-434]
Second: CCC(CC)c1ccc(Oc2ccc(/C=C/[C@H](C)NC(C)=O)cn2)c(Cl)c1 [Compound I-436]
The IC50 of the first is 1.7-fold higher: 100 nM for the first, 58 nM for the second.

`CC(=O)N[C@@H](C)/C=C/c1ccc(Oc2ccc3c(c2Cl)CCC3)nc1` [Compound I-435] and `CCCc1ccc(Oc2ccc(/C=C/[C@H](C)NC(C)=O)cn2)c(Cl)c1Cl` [Compound I-440] are within 1.5-fold of each other in IC50: 24 nM for the first, 20 nM for the second.

Compared with `CCCc1ccc(Oc2ccc(/C=C/[C@H](C)NC(C)=O)cn2)c(C)c1` [Compound I-437], `CCCc1ccc(Oc2ccc(/C=C/[C@H](C)NC(C)=O)cn2)c(C(F)(F)F)c1` [Compound I-439] is 2.5-fold higher in IC50: 33 nM for the first, 82 nM for the second. The first is the more potent here.

`CCOc1ccc(Oc2ncc(/C=C/[C@H](C)NC(C)=O)cc2C)c(Cl)c1` [Compound I-442] and `CCOc1ccc(Oc2ncc(/C=C/[C@H](C)NC(C)=O)cc2F)c(Cl)c1` [Compound I-446] are within 1.5-fold of each other in IC50: 65 nM for the first, 73 nM for the second.

`CC(=O)N[C@@H](C)/C=C/c1cnc(Oc2ccc(OCC3CC3)cc2Cl)c(C)c1` [Compound I-443] and `CC(=O)N[C@@H](C)/C=C/c1cnc(Oc2ccc(OCC3CC3)cc2Cl)c(F)c1` [Compound I-447] are within 1.5-fold of each other in IC50: 22 nM for the first, 25 nM for the second.

Compared with `CC(=O)N[C@@H](C)/C=C/c1ccc(Oc2ccc3c(c2)CCCO3)nc1` [Compound I-444], `CC(=O)N[C@@H](C)/C=C/c1ccc(Oc2ccc3c(c2)OCC3)nc1` [Compound I-448] is 4.3-fold higher in IC50: 42 nM for the first, 180 nM for the second. The first is the more potent here.

`CC(=O)N[C@@H](C)/C=C/c1cnc(Oc2ccc(OCC3CC3)cc2Cl)c(C#N)c1` [Compound I-445] was tested, and the IC50 was 260 nM.
